20 molecules from patent US9115151B2, “Substituted 2,10-dihydro-9-oxa-1,2,4A-triazaphenanthren-3-ones and uses thereof” (AbbVie Inc., priority 2012, dated 2015) can be followed below.

One experiment deals with T1, PKCθ (Homo sapiens, UniProt Q04759).
T1 construct: His6; purchased Millipore; host or cells: baculovirus in Sf21 cells
The experiment can be described thus: In vitro enzyme assay (time-resolved fluorescence kinase assay), PKCθ, 100 μM ATP. It counts as biochemical. The procedure, abridged:
(§1)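 Read-out was time-resolved fluorescence, corrected for a minus-enzyme blank and converted to percent activity relative to enzyme without drug. They were stopped with EDTA.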

In the next experiment the target is T2, PKCα (Homo sapiens, UniProt P17252).
T2 construct: His6; purchased Millipore; host or cells: baculovirus in Sf21 cells
The experiment can be described thus: In vitro enzyme assay (time-resolved fluorescence kinase assay), PKCα, 100 μM ATP. It counts as biochemical. The following applies: 100 μM ATP; read-out: PKCα enzyme IC50. The procedure, abridged:
as §1

Experiment [1] relates to CD3/CD28 induced IL-2 in human T-Blasts. The experiment can be described thus: T-Blasts CD3/CD28 induced IL-2 assay. It counts as cell-based. The following applies: read-out: CD3/CD28-stimulated IL2 in T-blasts EC50. In outline: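 IL-2 in supernatants read after 24 h 37° C stimulation of human PHA T-blasts (2×10^5/well) with anti-CD3/anti-CD28 at 5 μg/mL final. Duplicate eight-point, 1/3-step compound series added 30 min before stimulus; residual cells checked by MTT for toxicity.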

Each structure is given as a SMILES string.

T1 sequence (Q04759 whole entry): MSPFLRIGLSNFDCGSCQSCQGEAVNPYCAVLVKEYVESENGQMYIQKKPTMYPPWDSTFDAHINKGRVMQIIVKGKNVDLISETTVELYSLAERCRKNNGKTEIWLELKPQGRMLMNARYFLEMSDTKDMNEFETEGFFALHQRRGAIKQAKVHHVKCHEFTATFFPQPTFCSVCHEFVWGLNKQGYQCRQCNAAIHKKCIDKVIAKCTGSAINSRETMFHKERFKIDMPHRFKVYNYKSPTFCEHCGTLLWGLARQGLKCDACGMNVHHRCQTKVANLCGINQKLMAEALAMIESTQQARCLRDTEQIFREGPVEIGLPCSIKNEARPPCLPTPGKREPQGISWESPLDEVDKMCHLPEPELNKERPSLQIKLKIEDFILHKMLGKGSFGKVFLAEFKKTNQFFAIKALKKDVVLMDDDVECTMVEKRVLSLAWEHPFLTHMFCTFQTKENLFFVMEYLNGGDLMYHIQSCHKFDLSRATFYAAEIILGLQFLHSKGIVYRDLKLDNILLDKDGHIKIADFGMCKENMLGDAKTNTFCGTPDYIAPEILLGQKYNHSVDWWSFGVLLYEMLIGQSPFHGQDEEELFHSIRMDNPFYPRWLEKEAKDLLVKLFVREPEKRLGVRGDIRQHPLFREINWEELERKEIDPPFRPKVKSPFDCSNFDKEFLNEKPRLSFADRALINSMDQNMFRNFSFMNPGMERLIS

For the molecule `CC1C(=O)NN=C2COc3ccc(C(C)C4(C)CNC4)cc3N21` (stereo not drawn) [Example 129, 1-Methyl-9-(1-(3-methylazetidin-3-yl)ethyl)-3,5-dihydrobenzo[5,6][1,4]oxazino[3,4-c][1,2,4]triazin-2(1H)-one trifluoroacetic acid], the IC50 at PKCθ is below 0.25 µM; on PKCα, 1 to 10 µM. Besides, in experiment [1], the EC50 was in the range of 0.25 to 1 µM.
Regarding `CC1C(=O)NN=C2COc3cc(F)c(NC4(C)CNC4)cc3N21` (stereo not drawn) [Example 84, 8-Fluoro-1-methyl-9-((3-methylazetidin-3-yl)amino)-3,5-dihydrobenzo[5,6][1,4]oxazino[3,4-c][1,2,4]triazin-2(1H)-one trifluoroacetic acid], the figures for the concentration for half-maximal inhibition (IC50) against PKCθ and at PKCα were below 0.25 µM and 1 to 10 µM, respectively. In addition, the EC50 in experiment [1] is below 0.25 µM.
For the molecule `C[C@@H]1C(=O)NN=C2COc3cc(-c4ccccc4F)c([C@@H](C)C4(C)CN(C[C@@H](C)O)C4)cc3N21` [Example 140], the results for the IC50 against PKCθ and at PKCα were below 0.25 µM and 0.25 to 1 µM, respectively. Also, in experiment [1], the EC50 is below 0.25 µM.
In the case of `CC1C(=O)NN=C2COc3cc(-c4ccccc4)c(N(C)C4(C)CN(CC5CCOCC5)C4)cc3N21` (stereo not drawn) [Example 95], the IC50 on PKCθ is below 0.25 µM; at PKCα, 0.25 to 1 µM. Moreover, the EC50 in experiment [1] was below 0.25 µM.
On to `CC1C(=O)NN=C2COc3cc(-c4ccccc4)c(N(C)C4(C)CN(Cc5ccccc5)C4)cc3N21` (stereo not drawn) [Example 92], for which the IC50 on PKCθ is below 0.25 µM; on PKCα, 0.25 to 1 µM. Also, in experiment [1], the EC50 was below 0.25 µM.
With `C[C@@H]1CN(C)CC[C@@H]1c1cc2c(cc1-c1ccccc1CO)OCC1=NNC(=O)[C@@H](C)N12` [Example 205], the results for the concentration for half-maximal inhibition (IC50) against PKCθ and on PKCα were below 0.25 µM and 0.25 to 1 µM, respectively. Moreover, the EC50 in experiment [1] is below 0.25 µM.
For the molecule `CC1C(=O)NN=C2COc3cc(-c4ccc(F)cc4F)c(NC4CNC4)cc3N21` (racemic) [Example 47], the results for the IC50 against PKCθ and on PKCα were below 0.25 µM and 1 to 10 µM, respectively. In addition, the EC50 in experiment [1] was below 0.25 µM.
Take `C[C@@H]1C(=O)NN=C2COc3cc(-c4c(N5CCNCC5)ccc(Cl)c4Cl)ccc3N21` [Example 132]: the values for the IC50 against PKCθ and at PKCα were below 0.25 µM and 1 to 10 µM, respectively. For the same molecule, in experiment [1], the EC50 was 0.25 to 1 µM.
For the molecule `CC1C(=O)NN=C2COc3cc(-c4cccc(Cl)c4)c(NC4CNC4)cc3N21` (racemic) [Example 17], the IC50 is below 0.25 µM against PKCθ and 1 to 10 µM on PKCα. The EC50 in experiment [1] is below 0.25 µM.
For the molecule `C[C@@H]1C(=O)NN=C2COc3cc(-c4ccccc4F)c([C@H]4CCCNCC4)cc3N21` [Example 217], the 50% inhibitory concentration (IC50) is below 0.25 µM at PKCθ and 1 to 10 µM at PKCα. Also, the EC50 in experiment [1] lay within 0.25 to 1 µM.
For `CC(C)Cc1cc2c(cc1NC1CNC1)N1C(=NNC(=O)C1C)CO2` (stereo not drawn) [Example 58], the IC50 against PKCθ is below 0.25 µM; at PKCα it was 1 to 10 µM. In addition, the EC50 in experiment [1] is below 0.25 µM.
Consider `CC1C(=O)NN=C2COc3cc(-c4cccc(C#N)c4)c(N(C)C4(C)CN(C)C4)cc3N21` (stereo not drawn) [Example 170], for which the values for the concentration for half-maximal inhibition (IC50) against PKCθ and at PKCα were below 0.25 µM and 1 to 10 µM, respectively. Moreover, the EC50 in experiment [1] is below 0.25 µM.
`COCCN1CC(C)([C@H](C)c2cc3c(cc2-c2ccccc2F)OCC2=NNC(=O)[C@@H](C)N23)C1` [Example 145]: the figures for the IC50 against PKCθ and on PKCα were below 0.25 µM and 1 to 10 µM, respectively. For the same molecule, the EC50 in experiment [1] was 0.25 to 1 µM.
Take `C[C@@H]1C(=O)NN=C2COc3cc4c(cc3N21)N([C@H]1CCNC1)CC4` [Example 154, (R)-1-Methyl-10-(S)-pyrrolidin-3-yl-3,5,9,10-tetrahydro-8H-6-oxa-3,4,10,11b-tetraaza-cyclopenta[b]phenanthren-2-one hydrochloric acid]: the values for the IC50 at PKCθ and on PKCα were below 0.25 µM and 1 to 10 µM, respectively. Also, the EC50 in experiment [1] was in the range of 0.25 to 1 µM.
Turning to `C[C@@H]1C(=O)NN=C2COc3cc(-c4ccccc4F)c(N4CCNCC4)cc3N21` [Example 222, (R)-7-(2-Fluoro-phenyl)-4-methyl-6-piperazin-1-yl-2,10-dihydro-9-oxa-1,2,4a-triaza-phenanthren-3-one], the IC50 was below 0.25 µM against PKCθ and 1 to 10 µM at PKCα. Further, in experiment [1], the EC50 lay within 0.25 to 1 µM.
For `C[C@H](O)CN1CC(C)([C@H](C)c2cc3c(cc2-c2ccccc2F)OCC2=NNC(=O)[C@@H](C)N23)C1` [Example 139, (R)-7-(2-Fluoro-phenyl)-6-{(R)-1-[1-((S)-2-hydroxy-propyl)-3-methyl-azetidin-3-yl]-ethyl}-4-methyl-2,10-dihydro-9-oxa-1,2,4a-triaza-phenanthren-3-one hydrochloric acid] the same measures were below 0.25 µM, below 0.25 µM and below 0.25 µM.
For `CCc1cc2c(cc1NC1CNC1)N1C(=NNC(=O)C1C)CO2` (stereo not drawn) [Example 59] the same measures were below 0.25 µM, 1 to 10 µM and 0.25 to 1 µM.
With `C[C@@H]1C(=O)NN=C2COc3cc(-c4ccccc4Cl)c(NC4CNC4)cc3N21` [Example 2], the concentration for half-maximal inhibition (IC50) on PKCθ was below 0.25 µM; at PKCα, 0.25 to 1 µM. The EC50 in experiment [1] is below 0.25 µM.
In the case of `CC1CNCCC1c1ccc2c(c1)N1C(=NNC(=O)C1C)CO2` (stereo not drawn) [Example 73], the IC50 lay within 0.25 to 1 µM at PKCθ and 1 to 10 µM on PKCα. The EC50 in experiment [1] fell in the range of 1 to 10 µM.
With `CC1C(=O)NN=C2COc3cc(-c4ccccc4Cl)c(NC4CNC4)cc3N21` (racemic) [Example 44], the figures for the half-maximal inhibitory concentration (IC50) on PKCθ and at PKCα were below 0.25 µM and 1 to 10 µM, respectively. For the same molecule, in experiment [1], the EC50 is below 0.25 µM.
